Data as given in US10315990B2, “Isothiocyanate compounds and isothiocyanate XPO1 protein inhibitor drugs thereof” (DRIVINGFORCE THERAPEUTICS Co., Ltd., priority 2015, dated 2019).
Like-named read-outs stand apart in the source and are kept apart here.

Assays:
XPO1 protein = molecular target: T1, XPO1 protein (Homo sapiens, UniProt O14980); test: Inhibitory activity for XPO1 protein (NES-GFP nuclear export, laser confocal microscope); assay type: cell-based; conditions: for Activity (μM): inhibitory activity for XPO1 protein (full inhibitory concentration): NES-GFP nuclear export, cells treated for 2 hours
T1 construct: Sixteen hours later, NES-GFP plasmid was transfected with liposome; endogenous in cells
T1 sequence (O14980 whole entry, species assumed): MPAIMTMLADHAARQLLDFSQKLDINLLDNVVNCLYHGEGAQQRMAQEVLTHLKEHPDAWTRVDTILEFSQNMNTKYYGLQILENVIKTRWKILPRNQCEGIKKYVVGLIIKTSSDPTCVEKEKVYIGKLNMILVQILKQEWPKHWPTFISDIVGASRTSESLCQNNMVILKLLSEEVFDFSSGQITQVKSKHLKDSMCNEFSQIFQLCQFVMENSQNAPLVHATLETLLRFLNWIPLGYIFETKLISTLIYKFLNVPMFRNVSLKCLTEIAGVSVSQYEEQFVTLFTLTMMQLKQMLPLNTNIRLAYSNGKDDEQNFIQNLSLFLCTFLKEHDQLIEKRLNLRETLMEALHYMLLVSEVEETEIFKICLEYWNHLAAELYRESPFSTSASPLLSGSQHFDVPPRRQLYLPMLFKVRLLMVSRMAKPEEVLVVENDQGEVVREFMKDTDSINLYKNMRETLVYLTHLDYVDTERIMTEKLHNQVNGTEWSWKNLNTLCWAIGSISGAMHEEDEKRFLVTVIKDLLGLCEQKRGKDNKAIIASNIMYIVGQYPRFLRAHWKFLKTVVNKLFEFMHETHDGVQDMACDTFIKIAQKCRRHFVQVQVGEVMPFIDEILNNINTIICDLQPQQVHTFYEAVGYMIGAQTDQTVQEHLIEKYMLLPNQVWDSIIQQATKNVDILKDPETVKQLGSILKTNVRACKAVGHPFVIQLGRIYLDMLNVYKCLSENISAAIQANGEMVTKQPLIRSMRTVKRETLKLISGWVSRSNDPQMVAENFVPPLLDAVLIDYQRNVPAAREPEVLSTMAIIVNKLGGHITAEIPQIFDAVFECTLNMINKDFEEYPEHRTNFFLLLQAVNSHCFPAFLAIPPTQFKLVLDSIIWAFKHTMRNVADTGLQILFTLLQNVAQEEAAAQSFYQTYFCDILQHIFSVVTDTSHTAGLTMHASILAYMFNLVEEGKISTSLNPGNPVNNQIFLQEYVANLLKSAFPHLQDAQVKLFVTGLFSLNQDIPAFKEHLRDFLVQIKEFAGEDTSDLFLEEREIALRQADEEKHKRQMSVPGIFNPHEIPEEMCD
Excerpt: NES (nuclear export signal) is a nuclear export signal peptide recognized by XPO1 protein. XPO1 recognizes NES sequence peptide segment of biomacromolecule and exports the biomacromolecule out of nucleus. NES-GFP protein is obtained by co-expressing green fluorescence protein GFP and NES sequence peptide segment by using a eukaryotic expression plasmid. Inhibitory activity of the representative compound for XPO1 protein can be assessed by detecting influence of the compound on NES-GFP cell localization.
The cells were digested with trypsin, counted, and inoculated on 96-well plate in an amount of 1.5×10^4 cells per well. Sixteen hours later, NES-GFP plasmid was transfected with liposome.

IBD animal model = test: Macroscopic pathological changes of IBD animal model (enteroclysis with TNBS); assay type: in vivo, SD rats; conditions: TNBS rats; for Macroscopic pathological score: 80 mg/kg intragastrically daily, score 0-5, 10 animals
Method: Eight-week-old male SD rats (10 rats per group) were fasted for 24 hours and anaesthetized with diethyl ether. 50% ethanol and TNBS (2,4,6-trinitrobenzenesulfonic acid) were mixed to prepare a solution. In the IBD model group, a tube made of vinyl resin was inserted 5 cm from anus, and enteroclysis was performed with the TNBS solution in a dose of 100 mg/kg. The rats were hung upside down 30 seconds later after the enteroclysis to ensure no leakage of the TNBS solution. In the control group, the TNBS solution was replaced with normal saline with which enteroclysis was performed. Seven days later after the enteroclysis with the TNBS solution or normal saline, animals were sacrificed and dissected. […] Two weeks later after treated with the drugs, the animals were sacrificed and dissected, and large intestine thereof was taken out and fixed in 4% formalin solution for 30 minutes. The large intestine of the animals was cut lengthwise from the mesentery side to take photos for rectum portion and measure the weight of rectum. Based on the macroscopic observation and judgment score (Table 2-1), ulceration and bleeding states of rectum portion were scored according to the macroscopic observation scoring standard.

TNF-α = test: Serum TNF-α level of IBD animal model (ELISA); assay type: in vivo, SD rats; conditions: 80 mg/kg, three days after making the TNBS model
Excerpt: (§1) Inflammatory bowel disease is an autoimmune disease. […] The therapeutic effect of the representative compound for the immune system disease or inflammation can be assessed by detecting change in levels of some important cytokines such as TNF-α and IL-6 at downstream of the signal path.

IL-6 = test: Serum IL-6 level of IBD animal model (ELISA); assay type: in vivo, SD rats; conditions: 80 mg/kg, three days after making the TNBS model
Excerpt: as §1

HMLE-Snail cell line = test: Formation of HMLE-Snail cell line spheroids; assay type: cell-based; conditions: read-out: Colony (%): cell colony number of drug-treated group/cell colony number of control group × 100%
Method: HMLE-Snail cell line is one of most classic cell models for studying tumor cell metastasis and EMT path. HMLE-Snail cell line highly expresses Snail protein, and thus one of most remarkable features thereof is that it has spherical cellular morphology (spheroid). […] The HMLE-Snail cell line used in the present invention was donated by Dr. Robert Weinberg from America Massachusetts Whitehead Institute. HMLE-Snail cells were suspended in a liquid culture medium (in which B-27 and N-2 were added, purchased from America Invitrogen Corporation) containing DMEM/F12 in a ratio of 1:1, in an amount of 1.0×10^3 cells/ml, and cultured in an ultra low attachment culture plate so as to allow spheroids to be formed. Seven days later, spheroids were collected by centrifugation, and counted. […] Docetaxel is a common clinical chemotherapy drug.

NCI-H1650 = test: cells; assay type: cell-based; conditions: Homo sapiens, NCI-H1650, 72 h
Method: (§2) NCI-H1975 and NCI-H1650 are two typical high metastasis type lung cancer cell lines. The therapeutic effect of the representative compound for the metastasis type lung cancers can be preliminarily assessed by detecting the inhibitory activity of the representative compound for the two cell lines. The lung cancer cell line was inoculated on 96-well cell culture plate in an amount of 6000 cells per well and cultured at 37° C. for 24 hours, and then treated solely with the compound added therein and cultured. Seventy-two hours later, MTT or CCK-8 method was used to detect the inhibitory activity of the compound for the two lung cancer cell lines.

NCI-H1975 = test: cells; assay type: cell-based; conditions: Homo sapiens, NCI-H1975, 72 h
Method: as §2

A2780 = test: Inhibitory activity for high metastasis type ovarian cancer cell line (MTT or CCK-8); assay type: cell-based; conditions: Homo sapiens
Method: (§3) The two cell lines were inoculated on 96-well cell culture plate in an amount of 6000 cells per well and cultured at 37° C. for 24 hours, and then treated solely with the representative compound added therein and cultured. Seventy-two hours later, MTT or CCK-8 method was used to detect the inhibitory activity of the representative compound for the high metastasis type ovarian cancer cell lines.

HO-8910 = test: as above; assay type: cell-based
Method: as §3

Panc-1 = test: Inhibitory activity for other high metastasis type cancer cell line (MTT or CCK-8); assay type: cell-based; conditions: Homo sapiens
KYSE-70 = test: as above; assay type: cell-based; conditions: Homo sapiens
Saos-2 = test: as above; assay type: cell-based; conditions: Homo sapiens
786-O = test: as above; assay type: cell-based; conditions: Homo sapiens
CaSki = test: as above; assay type: cell-based; conditions: Homo sapiens, Ca-Ski
[1] = Safety testing via oral administration, 6 weeks; assay type: in vivo; conditions: intragastric, 6 weeks continuously, male and female SD rats
Method: The compound solution was intragastrically administrated to 6-week-old male and female SD rats (I-01: 500 mg/kg/day; I-03: 500 mg/kg/day; I-04: 500 mg/kg/day, I-06: 500 mg/kg/day, I-11: 300 mg/kg/day) for 6 weeks continuously (n=10 per group).

HCT116 = test: Inhibitory activity for high metastasis type colon cancer cell line (MTT or CCK-8); assay type: cell-based; conditions: Homo sapiens, HCT-116; HCT116, 72 hours; read-out: IC50
Method: (§4) SW620 and HCT116 are two typical high metastasis type colon cancer cell lines. The colon cancer cell line was inoculated on 96-well cell culture plate in an amount of 6000 cells per well and cultured at 37° C. for 24 hours, and then treated solely with the compound added therein and cultured. Seventy-two hours later, MTT or CCK-8 method was used to detect the inhibitory activity of the compound for the two high metastasis type colon cancer cell lines.

SW620 = test: as above; assay type: cell-based; conditions: Homo sapiens, SW-620; SW620, 72 hours; read-out: IC50
Method: as §4

Jeko-1 = test: Inhibitory activity for high metastasis type lymphoma cell line (MTT or CCK-8); assay type: cell-based; conditions: Homo sapiens; Jeko-1, 72 hours; read-out: IC50
Method: (§5) Jeko-1, Raji and U2932 are three typical high metastasis type lymphoma cell lines. The lymphoma cell line was inoculated on 96-well cell culture plate in an amount of 6000 cells per well and cultured at 37° C. for 24 hours, and then treated solely with the compound added therein and cultured. Seventy-two hours later, MTT or CCK-8 method was used to detect the inhibitory activity of the compound for the two high metastasis type lymphoma cell lines.

Raji = test: as above; assay type: cell-based; conditions: Homo sapiens, 72 hours, read-out: IC50
Method: as §5

U2932 = test: as above; assay type: cell-based; conditions: Homo sapiens; U2932, 72 hours; read-out: IC50
Method: as §5

[2] = tested on: SK-OV3 (high metastasis type ovarian cancer cell line); test: Ovarian cancer intraperitoneal metastasis animal model; assay type: in vivo, nudemice (BALB/c-nu/nu); conditions: Mus musculus, SK-OV-3, ip
Method: The ovarian cancer intraperitoneal metastasis animal model is one of most classic animal models for studying anti-ovarian cancer metastasis drug. Sixty 5 to 6-week-old female nudemice with similar weight (BALB/c-nu/nu) were chosen. SK-OV3 (high metastasis type ovarian cancer cell line) stably expressing green fluorescence protein was screened, and prepared into a cell suspension of 2×10^6 cells/100 μl with serum-free PRMI1640 medium. […] Three weeks later, the cancer was detected with a small animal in vivo imaging apparatus (Xenogen, School of Medicine, Shanghai Jiaotong University) and photos thereof were taken. […] In the table, T represents the drug-treated group, and C represents the blank control group. T/C is (V/V0 of compound-treated group)/(V/V0 of blank control group) in which V represents the cancer volume of mouse on the day the detection was performed, and V0 represents the cancer volume of mouse on the day the administration begun.

[3] = 10 μg/ml, treated for 24 hours, control = 100

Row | SMILES | Activity (μM): inhibitory activity for XPO1 protein (full inhibitory concentration) (XPO1 protein) [µM] | Macroscopic pathological score (IBD animal model) | Serum TNF-α level, Animal-1 (TNF-α) [ng/mL] | Serum TNF-α level, Animal-2 (TNF-α) [ng/mL] | Serum TNF-α level, Animal-3 (TNF-α) [ng/mL] | Serum IL-6 level, Animal-1 (IL-6) [ng/mL] | Serum IL-6 level, Animal-2 (IL-6) [ng/mL] | Serum IL-6 level, Animal-3 (IL-6) [ng/mL] | activity at 10 µg/mL (HMLE-Snail cell line; [3]) [%] | also measured
1 | [O-][S+](/C=C/CCN=C=S)c1ccccc1 (stereo not drawn) [Compound I-01] | 1 to 5 | 2.5 ± 0.1 | 1.5 | 1.2 | 1.2 | 1.5 | 1.3 | 1.2 |  | NES-GFP cell localization (FIG. 1) (XPO1 protein; laser confocal micrograph): most of NES-GFP protein emitting green fluorescence is congregated in nucleus; activity at 10 µg/mL (HMLE-Snail cell line; 24 h): 35 to 40%; IC50 (NCI-H1650): 2700 nM; IC50 (NCI-H1975): 3100 nM; IC50 (A2780; A2780, 72 h): 2500 nM; IC50 (HO-8910; HO-8910, 72 h): 1900 nM; IC50 (Panc-1; PANC-1, 72 h): 3300 nM; IC50 (KYSE-70; KYSE-70, 72 h): 2700 nM; IC50 (Saos-2; SAOS-2, 72 h): 3200 nM; IC50 (786-O; 786-0, 72 h): 1000 nM; IC50 (CaSki; 72 h): 2100 nM
2 | [O-][S+](/C=C/CCN=C=S)c1ccc(Cl)c(C(F)(F)F)c1 (stereo not drawn) [Compound I-03] | 0.5 to 1 |  | 1.3 | 1.1 | 0.7 | 0.9 | 0.8 | 0.7 | 25 to 30 | IC50 (Panc-1; Panc-1, 72 hours, read-out: IC50): 1600 nM; IC50 (KYSE-70; KYSE-70, 72 hours, read-out: IC50): 1800 nM; IC50 (Saos-2; Saos-2, 72 hours, read-out: IC50): 2600 nM; IC50 (786-O; 786-0, 786-O, 72 hours, read-out: IC50): 1300 nM; IC50 (CaSki; CaSki, 72 hours, read-out: IC50): 1500 nM
3 | [O-][S+](/C=C/CCN=C=S)c1ccc2ccccc2c1 (stereo not drawn) [Compound I-11] | 1 to 5 |  |  |  |  |  |  |  | 30 to 35 | nontoxic dose [1]: at least 300 mg/kg/day
4 | S=C=NCCc1ccccc1 [PEITC, phenylethylisothiocyanate, reference compound] | 30 | 3.5 ± 0.3 | 2.0 | 1.9 | 2.0 | 2.2 | 2.1 | 2.1 | 85 | colon tissue bleeding and ulceration phenomena (in words) (IBD animal model; 80 mg/kg): small relief extent; IC50 (HCT116): 8400 nM; IC50 (SW620): 10200 nM; IC50 (Jeko-1): 8700 nM; IC50 (Raji): 9300 nM; IC50 (U2932): 11700 nM; IC50 (A2780; A2780, 72 hours, read-out: IC50): 17600 nM; IC50 (HO-8910; HO-8910, 72 hours, read-out: IC50): 15500 nM; response vs control in vivo at 80 mg/kg ([2]; 504 h, 80 mg/kg intraperitoneal injection once a day for 3 weeks, read-out: T/C (%)): 71%; mortality at 80 mg/kg ([2]; 720 h, 80 mg/kg, six mice per group, read-out: Mortality (within 30 days) (converted)): 0%
